Results on two compounds are retold here after patent US20050175695A1 (priority 2003, published 2005).

Data set [1] can be described thus: Aqueous solubility at 25° C. of carvedilol free base and three salts (Table 13). The data set is classed as physicochemical.
From the text: Aliquots were taken out at various time-point, filtered through 0.45 μm Acrodisc GHP filter.
For data set [2] the following is noted: both R and S isomer forms; cited from earlier work.
The nature of data set [3]: pH-solubility behaviour of carvedilol free base. The data set is classed as physicochemical. The settings on record: pH values encountered in the distal small intestine and colon.

Structures can show the parent of a compound that is named as a salt.

As to `COc1ccccc1OCCNCC(O)COc1cccc2[nH]c3ccccc3c12` (stereo not drawn) [HBr salt, Carvedilol HBr], the “aqueous solubility compared with free base” value in data set [1] was “much better aqueous solubility than the free base”. For the compound `COc1ccccc1OCCNCC(O)COc1cccc2[nH]c3ccccc3c12` (stereo not drawn) [Carvedilol Free Base], the alpha elimination phase result in data set [2] is on record as “about 1.5 hours”. Moreover, in data set [3], the solubility was not above 0.1 mg per ml.
